Assay results published in US20260356856A1, “KRAS G12S AND G12C INHIBITORS” (MIRATI THERAPEUTICS, INC., priority 2023, published 2026).

What was measured:
Experiment in all cases: KRas binding assay, TR-FRET displacement of Cy5 labelled tracer
Details in all cases: 60-minute incubation at room temperature, 1% DMSO, pH 7.5
KRas G12C = target: T1, KRas G12C (Homo sapiens, UniProt P01116, G12C)
T1 construct: Biotinylated KRas (corresponding to amino acids 1-169, produced at Accelegan Inc.); biotin (biotinylated); purchased Accelegan Inc
Experimental: (§1) This Example illustrates that exemplary compounds of the present invention bind to KRas and are capable of displacing a labeled tracer ligand occupying the KRas binding site. KRas^WT, KRas^G12A, KRas^G12C, KRas^G12D, KRas^G12R, KRas^G12S, KRas^G12V, KRas^G13D, or KRas^Q61H was used in the assay.
(§2) The ability of a compound to bind to KRas was measured using a TR-FRET displacement assay. Biotinylated KRas (corresponding to amino acids 1-169, produced at Accelegan Inc.) was incubated with custom made Cy5 labelled tracer, terbium streptavidin (Cisbio Inc.) and compound (1% DMSO final) in buffer (50 mM HEPES, pH 7.5, 5 mM MgCl2, 0.005% Tween-20 and 1 mM DTT). After a 60-minute incubation at room temperature, the reaction was measured using a BMG LABTECH CLARIO star Plus via TR-FRET. […] The POC values were fit to a 4-parameter IC50 equation and the IC50 value reported.

KRas G12S = target: T2, KRas G12S (Homo sapiens, UniProt P01116, G12S)
T2 construct: Biotinylated KRas (corresponding to amino acids 1-169, produced at Accelegan Inc.); biotin (biotinylated); purchased Accelegan Inc
Experimental: as §1, §2

KRas WT = target: T3, KRas WT (Homo sapiens, UniProt P01116)
T3 construct: Biotinylated KRas (corresponding to amino acids 1-169, produced at Accelegan Inc.); biotin (biotinylated); purchased Accelegan Inc
Experimental: as §1, §2

T2 sequence (P01116 1-169 isoform P01116-2 G12S): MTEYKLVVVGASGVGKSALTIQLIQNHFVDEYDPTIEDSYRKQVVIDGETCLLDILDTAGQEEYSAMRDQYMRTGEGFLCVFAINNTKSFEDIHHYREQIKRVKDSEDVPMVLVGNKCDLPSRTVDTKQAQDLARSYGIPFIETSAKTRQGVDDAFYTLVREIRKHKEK
T3 sequence (P01116 1-169 isoform P01116-2): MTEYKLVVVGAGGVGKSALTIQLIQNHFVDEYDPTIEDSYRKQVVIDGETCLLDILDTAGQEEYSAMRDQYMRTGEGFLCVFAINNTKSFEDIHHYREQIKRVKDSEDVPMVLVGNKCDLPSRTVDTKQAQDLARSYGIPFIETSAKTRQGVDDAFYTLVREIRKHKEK
T1 sequence (P01116 1-169 isoform P01116-2 G12C): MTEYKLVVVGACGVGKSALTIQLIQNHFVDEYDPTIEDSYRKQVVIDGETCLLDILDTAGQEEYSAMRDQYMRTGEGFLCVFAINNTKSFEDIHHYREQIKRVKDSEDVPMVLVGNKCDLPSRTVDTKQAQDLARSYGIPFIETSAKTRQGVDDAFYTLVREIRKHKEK

| SMILES | IC50 (KRas G12C) | IC50 (KRas G12S) | IC50 (KRas WT) |
| --- | --- | --- | --- |
| O=C1OCCN1C(=O)C1CCN(c2nc(OCC34CCCN3CCC4)nc3c(F)c(-c4cccc5cccc(F)c45)ncc23)CC1 [Example 2, 3-(1-(8-fluoro-7-(8-fluoronaphthalen-1-yl)-2-((tetrahydro-1H-pyrrolizin-7a(5H)-yl)methoxy)pyrido[4,3-d]pyrimidin-4-yl)piperidine-4-carbonyl)oxazolidin-2-one] | > 100000 nM | 72500 nM | 73900 nM |
| O=C(Nc1ccccn1)C1CCN(c2nc(OCC34CCCN3CCC4)nc3c(F)c(-c4cccc5cccc(F)c45)ncc23)CC1 [Example 3, 1-(8-fluoro-7-(8-fluoronaphthalen-1-yl)-2-((tetrahydro-1H-pyrrolizin-7a(5H)-yl)methoxy)pyrido[4,3-d]pyrimidin-4-yl)-N-(pyridin-2-yl)piperidine-4-carboxamide] | 582 nM | 346 nM | 649 nM |
| O=C(Oc1ccc(F)cc1)[C@H]1[C@@H]2C[C@H]1CN(c1nc(OCC34CCCN3CCC4)nc3c(F)c(-c4cccc5cccc(F)c45)ncc13)C2 [Example 8, 4-fluorophenyl (1R,5S,6s)-3-(8-fluoro-7-(8-fluoronaphthalen-1-yl)-2-((tetrahydro-1H-pyrrolizin-7a(5H)-yl)methoxy)pyrido[4,3-d]pyrimidin-4-yl)-3-azabicyclo[3.1.1]heptane-6-carboxylate] | > 100000 nM | > 100000 nM | > 100000 nM |
| Cc1cc(C)n(C(=O)C2CCN(c3nc(OCC45CCCN4CCC5)nc4c(F)c(-c5cccc6cccc(F)c56)ncc34)CC2)n1 [Example 9, (3,5-dimethyl-1H-pyrazol-1-yl)(1-(8-fluoro-7-(8-fluoronaphthalen-1-yl)-2-((tetrahydro-1H-pyrrolizin-7a(5H)-yl)methoxy)pyrido[4,3-d]pyrimidin-4-yl)piperidin-4-yl)methanone] | 30600 nM | 31500 nM | 64600 nM |
| O=C(C1CCN(c2nc(OCC34CCCN3CCC4)nc3c(F)c(-c4cccc5cccc(F)c45)ncc23)CC1)n1cccn1 [Example 11, (1-(8-fluoro-7-(8-fluoronaphthalen-1-yl)-2-((tetrahydro-1H-pyrrolizin-7a(5H)-yl)methoxy)pyrido[4,3-d]pyrimidin-4-yl)piperidin-4-yl)(1H-pyrazol-1-yl)methanone] | 8160 nM | 3840 nM | 9270 nM |
| O=C(Oc1ccc(F)cc1F)C1CCN(c2nc(OCC34CCCN3CCC4)nc3c(F)c(-c4cccc5cccc(F)c45)ncc23)CC1 [Example 13, 2,4-difluorophenyl 1-(8-fluoro-7-(8-fluoronaphthalen-1-yl)-2-((tetrahydro-1H-pyrrolizin-7a(5H)-yl)methoxy)pyrido[4,3-d]pyrimidin-4-yl)piperidine-4-carboxylate] | 272 nM | 39000 nM | 28700 nM |
| O=C[C@@H]1[C@@H]2CC[C@H]1CN(c1nc(OCC34CCCN3CCC4)nc3c(F)c(-c4cccc5cccc(F)c45)ncc13)C2 [Example 17, (1R,5S,8r)-3-(8-fluoro-7-(8-fluoronaphthalen-1-yl)-2-((tetrahydro-1H-pyrrolizin-7a(5H)-yl)methoxy)pyrido[4,3-d]pyrimidin-4-yl)-3-azabicyclo[3.2.1]octane-8-carbaldehyde] | 1080 nM | 15300 nM | 5780 nM |
| O=C(OCC(F)(F)F)[C@@H]1[C@@H]2CC[C@H]1CN(c1nc(OCC34CCCN3CCC4)nc3c(F)c(-c4cccc5cccc(F)c45)ncc13)C2 [Example 18, 2,2,2-trifluoroethyl (1R,5S,8r)-3-(8-fluoro-7-(8-fluoronaphthalen-1-yl)-2-((tetrahydro-1H-pyrrolizin-7a(5H)-yl)methoxy)pyrido[4,3-d]pyrimidin-4-yl)-3-azabicyclo[3.2.1]octane-8-carboxylate] | 42100 nM | 30000 nM | 7970 nM |
| COC(=O)[C@@H]1[C@@H]2CC[C@H]1CN(c1nc(OCC34CCCN3CCC4)nc3c(F)c(-c4cccc5cccc(F)c45)ncc13)C2 [Example 19, methyl (1R,5S,8s)-3-(8-fluoro-7-(8-fluoronaphthalen-1-yl)-2-((tetrahydro-1H-pyrrolizin-7a(5H)-yl)methoxy)pyrido[4,3-d]pyrimidin-4-yl)-3-azabicyclo[3.2.1]octane-8-carboxylate] | 20100 nM | 7460 nM | 2800 nM |
| N#Cc1ccc(OC(=O)[C@@H]2[C@@H]3CC[C@H]2CN(c2nc(OCC45CCCN4CCC5)nc4c(F)c(-c5cccc6cccc(F)c56)ncc24)C3)cc1 [Example 20, 4-cyanophenyl (1R,5S,8r)-3-(8-fluoro-7-(8-fluoronaphthalen-1-yl)-2-((tetrahydro-1H-pyrrolizin-7a(5H)-yl)methoxy)pyrido[4,3-d]pyrimidin-4-yl)-3-azabicyclo[3.2.1]octane-8-carboxylate] | 27300 nM | 98800 nM | 14700 nM |
| COC(=O)C1CCCN(c2nc(OCC34CCCN3CCC4)nc3c(F)c(-c4cccc5cccc(F)c45)ncc23)CC1 (stereo not drawn) [Example 49, methyl 1-(8-fluoro-7-(8-fluoronaphthalen-1-yl)-2-((tetrahydro-1H-pyrrolizin-7a(5H)-yl)methoxy)pyrido[4,3-d]pyrimidin-4-yl) azepane-4-carboxylate] | 65900 nM | 54800 nM | – |

Further molecules by falling IC50 (KRas G12C), results first:

| IC50 (KRas G12C) | IC50 (KRas G12S) | IC50 (KRas WT) | SMILES |
| --- | --- | --- | --- |
| 20400 nM | 21200 nM | 24200 nM | O=C(Oc1ccc(F)cc1)[C@@H]1[C@@H]2C[C@H]1CN(c1nc(OCC34CCCN3CCC4)nc3c(F)c(-c4cccc5cccc(F)c45)ncc13)C2 [Example 7, 4-fluorophenyl (1R,5S,6r)-3-(8-fluoro-7-(8-fluoronaphthalen-1-yl)-2-((tetrahydro-1H-pyrrolizin-7a(5H)-yl)methoxy)pyrido[4,3-d]pyrimidin-4-yl)-3-azabicyclo[3.1.1]heptane-6-carboxylate] |
| 19600 nM | 4670 nM | 43900 nM | Cc1ccn(C(=O)C2CCN(c3nc(OCC45CCCN4CCC5)nc4c(F)c(-c5cccc6cccc(F)c56)ncc34)CC2)n1 [Example 10, (1-(8-fluoro-7-(8-fluoronaphthalen-1-yl)-2-((tetrahydro-1H-pyrrolizin-7a(5H)-yl)methoxy)pyrido[4,3-d]pyrimidin-4-yl)piperidin-4-yl)(3-methyl-1H-pyrazol-1-yl)methanone] |
| 10600 nM | 7950 nM | 8060 nM | O=C(Oc1c(F)cccc1F)[C@H]1[C@@H]2C[C@H]1CN(c1nc(OCC34CCCN3CCC4)nc3c(F)c(-c4cccc5cccc(F)c45)ncc13)C2 [Example 6, 2,6-difluorophenyl (1R,5S,6s)-3-(8-fluoro-7-(8-fluoronaphthalen-1-yl)-2-((tetrahydro-1H-pyrrolizin-7a(5H)-yl)methoxy)pyrido[4,3-d]pyrimidin-4-yl)-3-azabicyclo[3.1.1]heptane-6-carboxylate] |
| 7570 nM | 26500 nM | 34400 nM | O=C(Oc1c(F)cccc1F)[C@@H]1[C@@H]2C[C@H]1CN(c1nc(OCC34CCCN3CCC4)nc3c(F)c(-c4cccc5cccc(F)c45)ncc13)C2 [Example 5, 2,6-difluorophenyl (1R,5S,6r)-3-(8-fluoro-7-(8-fluoronaphthalen-1-yl)-2-((tetrahydro-1H-pyrrolizin-7a(5H)-yl)methoxy)pyrido[4,3-d]pyrimidin-4-yl)-3-azabicyclo[3.1.1]heptane-6-carboxylate] |
| 3440 nM | 55600 nM | – | O=C(Oc1ccc(C(F)(F)F)cc1)C1CCCN(c2nc(OCC34CCCN3CCC4)nc3c(F)c(-c4cccc5cccc(F)c45)ncc23)CC1 (stereo not drawn) [Example 50, 4-(trifluoromethyl)phenyl 1-(8-fluoro-7-(8-fluoronaphthalen-1-yl)-2-((tetrahydro-1H-pyrrolizin-7a(5H)-yl)methoxy)pyrido[4,3-d]pyrimidin-4-yl) azepane-4-carboxylate] |
| 2740 nM | 30100 nM | – | O=C(Oc1ccc(F)c(F)c1)C1CCCN(c2nc(OCC34CCCN3CCC4)nc3c(F)c(-c4cccc5cccc(F)c45)ncc23)CC1 (stereo not drawn) [Example 48, 3,4-difluorophenyl 1-(8-fluoro-7-(8-fluoronaphthalen-1-yl)-2-((tetrahydro-1H-pyrrolizin-7a(5H)-yl)methoxy)pyrido[4,3-d]pyrimidin-4-yl) azepane-4-carboxylate] |
| 877 nM | > 100000 nM | 45000 nM | O=C(Oc1ccc(F)cc1)C1CCN(c2nc(OCC34CCCN3CCC4)nc3c(F)c(-c4cccc5cccc(F)c45)ncc23)CC1 [Example 14, 4-fluorophenyl 1-(8-fluoro-7-(8-fluoronaphthalen-1-yl)-2-((tetrahydro-1H-pyrrolizin-7a(5H)-yl)methoxy)pyrido[4,3-d]pyrimidin-4-yl)piperidine-4-carboxylate] |
| 808 nM | 59600 nM | 48500 nM | O=C(Oc1c(F)cc(F)cc1F)C1CCN(c2nc(OCC34CCCN3CCC4)nc3c(F)c(-c4cccc5cccc(F)c45)ncc23)CC1 [Example 12, 2,4,6-trifluorophenyl 1-(8-fluoro-7-(8-fluoronaphthalen-1-yl)-2-((tetrahydro-1H-pyrrolizin-7a(5H)-yl)methoxy)pyrido[4,3-d]pyrimidin-4-yl)piperidine-4-carboxylate] |
